Values after ≈ are worked out from the molar mass of the structure shown. Like-named read-outs stand apart in the source and are kept apart here.
Assays:
[1] = Solubility tests at different pH; assay type: physicochemical; details: pH=2
[2] = Stability in solubility test (thin layer chromatography); assay type: physicochemical; details: under the conditions of the solubility tests
[3] = Diffusion test through semipermeable membrane; assay type: physicochemical
From the text: The two sides of a diffusion cell are separated by a semipermeable membrane.

ovariectomized rat = experiment: Pregnancy protective activity in the ovariectomized rat; assay type: in vivo, rat (CFY strain); details: per os
From the text: Test animal: female rat of an average weight of 308 g., derived from 18 CFY strain
The ovary of the animals was removed on the 17th day of pregnancy and the animals were placed individually in cages.
6 animals were used as control.
On the 19th day and 20th day in the morning of the pregnancy the treatment was repeated.

inflammation = experiment: Speed of onset and duration of antiinflammatory activity, Carrageenin feet inflammation; assay type: in vivo, rat (female, strain CFY); details: simultaneous administration with Carrageenin (FIG. 5)
Experimental: The test compound, the reference substance, the animals, the treatment, doses, investigation are all the same as described above. The differences can be found below.
In this series of tests the following investigations were carried out:
2. Carrageenin was given 1, 2 and 3 hours after the administration of the antiinflammatory agent and the results were evaluated after 3 hours. The animals were exterminated with ether and the weight of the separated untreated feet and feet treated with Carrageenin was measured. The feet were separated above the metacarpus.
The weight difference of the untreated and treated feet in the same animal was calculated. […] The antiinflammatory activity was calculated in percent and the results are plotted in FIGS. 4 and 5.

in vivo = experiment: in vivo; set-up: species or system rat (CFY strain); details: rat, in vivo, po, 5 mg./kg. p.o.
Experimental: (§1) Subacute toxicity test was carried out in male and female animals derived from CFY strain and 10--10 animals were treated for each substance and for male and female rats each.
(§2) At the beginning of the investigation the animals were 7 weeks old and weighed 150-170 g. The animals were kept at a constant temperature (22°-24° C.) and under constant relative humidity (45-50%). During treatment the animals were on a standard diet and drank water ad libitum.
(§3) The animals were treated daily at the same time of the day, in the morning. The test compound and the reference substance were administered in the form of a suspension prepared with 1% methyl cellulose through an oesophagial sound. The animals of the control group obtained 1% methyl cellulose per os. The weight increase of the animals and their clinical states were registered during the treatment every week.
(§4) 1. Control: 1% methyl cellulose suspension 0.2 ml./100 g. per os;
(§5) Investigation: the animals were treated for 28 days.

rat [4] = experiment: in vivo; set-up: species or system rat (CFY strain)
Experimental: as §1, §2, §3, §4, §5

rat [5] = assay type: in vivo, rat (Long-Evans strain)
Experimental: As a reference compound pure Indomethacin is used.
Subacute toxicity test was carried out in male and female animals derived from Long-Evans strain, 10--10 animals were treated for each test compound and both for female and male animals. At the beginning of the test the animals were 7 week old, of an average bodyweight of 140-160 g. The animals were kept at constant temperature (22°-24° C.) and under constant relative humidity (45-50%). During the treatment the animals were on a standard diet and drank water ad libitum.
The subacute toxicity test corresponds to a 4 weeks' treatment period. The animals were treated daily at the same time in the morning. The complex of a molar ratio 1:1 and the reference substance were administered in the form of a suspension in 1% methyl cellulose through an oesophaged sound. The animals of the control group get 1% methyl cellulose per os. The weight increase and the clinical state of the animals were registered during the treatment every week.
1. Control: 1% methyl cellulose, 0.2 ml./100 g. per os
The animals were treated for 28 days. On the 29th day the living animals were exterminated with ether and the stomach and the duodenum were prepared. Also the stomach and duodenum of the animals perished during the treatment were prepared.
In each case the mucous membrane of the stomach, bile and intestine were examined macroscopically and the number of the eventual ulcers and erosions was determined.

[6] = cited from earlier work
[7] = aqueous solution, cited from earlier work
[8] = number related to treated animals, 28 days p.o., 40.3 mg./kg. CD-Ind or 5.0 mg./kg. Ind., control 0/10
[9] = 16 mg./kg. 1:1 complex or 5 mg./kg. Indomethacin p.o., control 0/10
[10] = 28 days, 16 mg./kg 1:1 complex or 5 mg./kg. Indomethacin p.o., control 0/10

COc1ccc2c(c1)c(CC(=O)O)c(C)n2C(=O)c1ccc(Cl)cc1 [Indomethacin, 1-(p-Chloro-benzoyl)-5-methoxy-2-methyl-indol-3-acetic acid]
solubility [1]: substantially insoluble | decomposition of Indomethacin [2]: not decomposed | time to equilibrium ([3]; pure buffer on other side): 4 h | distribution of Indomethacin ([3]; β-cyclodextrin buffer solution on other side, 4 hours): more Indomethacin on the β-cyclodextrin side after 4 hours, than on the Indomethacin side | foetus retention compared with the control (ovariectomized rat): significantly increased the percentage of the foetus retention | foeti left alive (ovariectomized rat; 1.25 mg./kg. Indomethacin on 18th day, repeated 19th and 20th day, dissected 21st day, control 16.1%): 58.8% | antiinflammatory activity 6 hours after treatment (inflammation): inflammation increases after 6 hours | mortality at 336 h (in vivo; by the 14th day, read-out: dead animals, male): 80% | mortality at 504 h (in vivo; by the 21st day, read-out: dead animals, female): 60% | erosion, female (rat [4]; [8]): 7/10 | ulcer, female (rat [4]; [8]): 6/10 | ulcer, male (rat [4]; [8]): 7/10 | erosion, male (rat [4]; number related to treated animals, 28 days p.o., 40.3 mg./kg. CD-Ind or 5.0 mg./kg. Ind., control 1/10): 9/10 | Average body weight (rat [4]; week 0, control 152.5): 164.5 g | Average body weight (rat [4]; week 0, control 154.5): 161.5 g | Average body weight (rat [4]; week 1, control 183.0): 182.0 g | Average body weight (rat [4]; week 1, control 196.5): 210.7 g | Average body weight (rat [4]; week 2, control 209.0): 177.5 g | Average body weight (rat [4]; week 2, control 240.5): 212.5 g | Average body weight (rat [4]; week 3, control 222.0): 206.5 g | Average body weight (rat [4]; week 3, control 276.5): 287.5 g | Average body weight (rat [4]; week 4, control 241.0): 221.2 g | Average body weight (rat [4]; week 4, control 300.5): 320.0 g | animals with ulcers, female (rat [5]; 5 mg./kg.): 70% | animals with ulcers, male (rat [5]; 5 mg./kg.): 80% | Lethality, 7th day, female (rat [5]; [9]): 1/10 | Lethality, 7th day, male (rat [5]; [9]): 4/10 | Lethality, 14th day, female (rat [5]; [9]): 2/10 | Lethality, 14th day, male (rat [5]; [9]): 4/10 | Lethality, 21st day, female (rat [5]; [9]): 3/10 | Lethality, 21st day, male (rat [5]; [9]): 5/10 | Lethality, 28th day, female (rat [5]; [9]): 6/10 | Lethality, 28th day, male (rat [5]; [9]): 6/10 | ulcer, female (rat [5]; [10]): 7/10 | ulcer, male (rat [5]; [10]): 8/10 | erosion, female (rat [5]; 28 days, 16 mg./kg 1:1 complex or 5 mg./kg. Indomethacin p.o., control 2/10): 10/10 | erosion, male (rat [5]; 28 days, 16 mg./kg 1:1 complex or 5 mg./kg. Indomethacin p.o., control 3/10): 10/10 | clinical symptoms (rat [5]; from third day, 5 mg./kg. Indomethacin or 16 mg./kg. 1:1 complex): bradypnoe and depression | original solubility ([6]; 35° C., aqueous, without cyclodextrin): 350 µM | solubility increased by cyclodextrin ([6]; aqueous solution with cyclodextrin): 980 µM (≈ 351 µg/mL) | solubility increase ([6]; with cyclodextrin vs original): 2.8 times | hydrolysis ([7]; in the presence of glucose): hydrolyses rapidly | hydrolysis ([7]; in the presence of α-cyclodextrin): slowly | hydrolysis ([7]; in the presence of β-cyclodextrin): inhibits hydrolysis
